In article PMC7447754 (Nature Communications, 2020):
Where a SMILES comes first, the peptide text is derived from it.

Tested on: H1N1 virus
Conditions: pH 4.9

With CC[C@H](C)[C@H](NC(=O)[C@H](C)NC(=O)CNC(=O)[C@@H](N)CC(N)=O)C(=O)N[C@@H](CS)C(=O)N[C@@H](Cc1c[nH]c2ccccc12)C(=O)NCC(=O)N1CCC[C@H]1C(=O)N[C@@H](CS)C(=O)N1CCC[C@H]1C(=O)N[C@H](C(=O)N[C@@H](C)C(=O)N[C@@H](Cc1ccccc1)C(=O)N[C@@H](CCCNC(=N)N)C(=O)N[C@@H](CCC(N)=O)C(=O)N[C@H](C(=O)NCC(=O)N[C@@H](CC(N)=O)C(=O)N[C@@H](CS)C(=O)NCC(=O)N[C@@H](CCCNC(=N)N)C(=O)N[C@@H](Cc1ccccc1)C(=O)N[C@@H](CCCNC(=N)N)C(=O)N[C@H](C(=O)N[C@@H](CCCNC(=N)N)C(=O)N[C@@H](CS)C(=O)N[C@@H](CS)C(=O)N[C@@H](CCCNC(=N)N)C(=O)N[C@H](C(=O)N[C@@H](CCCNC(=N)N)C(=O)O)[C@@H](C)CC)C(C)C)[C@@H](C)CC)[C@@H](C)O [P9R] (H-NGAICWGPCPTAFRQIGNCGRFRVRCCRIR-OH) the “inhibition of viral fusion (virus-induced hemolysis)” value was “did not inhibit viral fusion”.
